Reference: US7524823B2, “Macrolides” (Basilea Pharmaceutica AG, priority 2005, dated 2009)
≈ marks a conversion by molar mass, not a printed value. Where two headings read alike, the source gives them in different places.

Key:
Assay type in all cases: cell-based
[1] = test system: Escherichia coli ATCC 25922; assay: MIC by broth microdilution (CAMHB, NCCLS); conditions: code C: Escherichia coli ATCC 25922
Experimental: (§1) MIC values for non-anaerobes were obtained by broth microdilution using CAMHB (BBL) according to NCCLS guidelines (National Committee for Clinical Laboratory Standards. Methods for dilution antimicrobial susceptibility tests for bacteria that grow aerobically, 5th ed. Approved standard M7-A6. NCCLS, Wayne, Pa., 2003). Drugs were dissolved in DMSO prior to dispensing into 96-well microtitre plates; the concentration of DMSO in assay wells never exceeded 2% (v/v). CAMHB was supplemented with 5% (v/v) horse serum (Sigma, cat. no. H-1270) in lieu of laked horse blood for cultivation of Streptococcus pneumoniae, and with 5% (v/v) Fildes enrichment (BBL, cat. no. 220810) supernate in lieu of Haemophilus Test Medium and additives for cultivation of Haemophilus influenzae (Pankuch G A, Hoellman D B, Lin G, Bajaksouzian S, Jacobs M R, Appelbaum P C. Activity of HMR 3647 compared to those of five agents against Haemophilus influenzae and Moraxella catarrhalis by MIC determination and time-kill assay. Antimicrob. Agents Chemother. November 1998; 42(11): 3032-4). Activities expressed as the minimal inhibitory concentrations (MICs) (μg/ml) are given in the following Table 3, and the microorganisms used for testing are listed in Table 2 below.

[2] = test system: Staphylococcus aureus 1086; assay: MIC by broth microdilution (CAMHB, NCCLS); conditions: code B: Staphylococcus aureus 1086
Experimental: as §1

[3] = test system: Staphylococcus aureus ATCC 29213; assay: MIC by broth microdilution (CAMHB, NCCLS); conditions: code A: Staphylococcus aureus ATCC 29213
Experimental: as §1

[4] = test system: Propionibacterium acnes SW101T; assay: MIC by anaerobic broth microdilution (WCB, NCCLS); conditions: code K: Propionibacterium acnes SW101T, 35-37° C., 48 h
Experimental: (§2) MIC values towards strains of propionibacteria were obtained by broth microdilution using WCB (Anaerobe Broth MIC, Difco) according to NCCLS guidelines (National Committee for Clinical Laboratory Standards. Methods for anti-microbial susceptibility testing of anaerobic bacteria, 5th ed.; approved standard. NCCLS publication no. M11-A5. NCCLS, Wayne, Pa., 2001). Microtitre plates were loaded into 7-L GENbox anaerobic incubation jars (BioMérieux, cat. no. 96 128) fitted with anaerobic atmosphere generators (BioMérieux, cat. no. 96 124) and a Dry Anaerobic Indicator Strip (BBL, cat. no. 271051). Under these conditions, an O2 concentration <0.1% was achieved by 2.5 h, and a CO2 concentration >15% by 24 h. MIC values were read after incubation at 35-37° C. for 48 h (Table 3).

[5] = test system: Propionibacterium acnes EG7NS; assay: MIC by anaerobic broth microdilution (WCB, NCCLS); conditions: code I: Propionibacterium acnes EG7NS, anaerobic, 35-37° C., 48 h
Experimental: as §2

[6] = test system: Haemophilus influenzae QK50; assay: MIC by broth microdilution (CAMHB + 5% Fildes enrichment, NCCLS); conditions: code H: Haemophilus influenzae QK50
Experimental: as §1

[7] = test system: Haemophilus influenzae 12214; assay: as above; conditions: code G: Haemophilus influenzae 12214
Experimental: as §1

[8] = test system: Streptococcus pneumoniae 1/1; assay: MIC by broth microdilution (CAMHB + 5% horse serum, NCCLS); conditions: code D: Streptococcus pneumoniae 1/1
Experimental: as §1

[9] = test system: Streptococcus pneumoniae SL199T; assay: as above; conditions: code E: Streptococcus pneumoniae SL199T
Experimental: as §1

[10] = test system: Streptococcus pneumoniae Tupelo; assay: as above; conditions: code F: Streptococcus pneumoniae Tupelo
Experimental: as §1

[11] = Cutibacterium acnes, read-out: MIC

Row | Structure (SMILES) | MIC [1] | MIC [2] | MIC [3] | MIC [4] | MIC [5] | MIC [6] | MIC [7] | MIC [8] | MIC [9] | MIC [10] | MIC [4, 11] | MIC [5, 11] | MIC ([1]; ATCC25922, read-out: MIC) | MIC ([2]; read-out: MIC) | MIC ([3]; ATCC29213, read-out: MIC) | MIC ([6]; read-out: MIC) | MIC ([7]; read-out: MIC) | MIC ([8]; read-out: MIC) | MIC ([9]; read-out: MIC) | MIC ([10]; read-out: MIC)
1 | CC[C@H]1OC(=O)[C@H](C)[C@@H](O[C@H]2C[C@@](C)(OC)[C@@H](O)[C@H](C)O2)[C@H](C)[C@@H](O[C@@H]2O[C@H](C)C[C@H](N(C)C)[C@H]2O)[C@](C)(OC)C[C@@H](C)C(=O)[C@H](C)[C@H]2[C@H](SCCCN3C(=O)c4ccccc4C3=O)C(=O)O[C@@]21C [Example 15] | >32 µg/mL | >=32 μg/ml | 1 µg/mL (≈ 1.01 µM) | 16 µg/mL (≈ 16.1 µM) | <=0.06 μg/ml | 4 µg/mL | 4 µg/mL | <=0.06 μg/ml | 1 µg/mL | 2 µg/mL | – | – | – | – | – | – | – | – | – | –
2 | CC[C@H]1OC(=O)[C@H](C)[C@@H](O[C@H]2C[C@@](C)(OC)[C@@H](O)[C@H](C)O2)[C@H](C)[C@@H](O[C@@H]2O[C@H](C)C[C@H](N(C)C)[C@H]2O)[C@](C)(OC)C[C@@H](C)C(=O)[C@H](C)[C@H]2[C@H](SCCn3ncc4c(N)ncnc43)C(=O)O[C@@]21C [Example 13] | >=32 μg/ml | 16 µg/mL (≈ 16.6 µM) | 2 µg/mL (≈ 2.07 µM) | 2 µg/mL (≈ 2.07 µM) | <=0.06 μg/ml | 4 µg/mL | 4 µg/mL | <=0.06 μg/ml | 0.125 µg/mL | 0.25 µg/mL | – | – | – | – | – | – | – | – | – | –
3 | CCC[C@@H]1C[C@@H](C(=O)N[C@@H]([C@H]2O[C@H](SC)[C@H](O)[C@@H](O)[C@H]2O)[C@H](C)Cl)N(C)C1 [Clindamycin, reference compound] | – | – | – | – | – | – | – | – | – | – | > 32 µg/mL | ≤ 0.06 µg/mL | – | – | – | – | – | – | – | –
4 | CC[C@H]1OC(=O)[C@H](C)C(=O)[C@H](C)[C@@H](O[C@@H]2O[C@H](C)C[C@H](N(C)C)[C@H]2O)[C@](C)(OC)C[C@@H](C)C(=O)[C@H](C)[C@H]2N(CCCCn3cnc(-c4cccnc4)c3)C(=O)O[C@]12C [Telithromycin, reference compound] | – | – | – | – | – | – | – | – | – | – | 16 µg/mL (≈ 19.7 µM) | ≤ 0.06 µg/mL | > 32 µg/mL | 0.25 µg/mL (≈ 0.308 µM) | 0.25 µg/mL (≈ 0.308 µM) | 1 µg/mL | 2 µg/mL | ≤ 0.06 µg/mL | ≤ 0.06 µg/mL | 0.5 µg/mL
5 | CC[C@H]1OC(=O)[C@H](C)[C@@H](O[C@H]2C[C@@](C)(OC)[C@@H](O)[C@H](C)O2)[C@H](C)[C@@H](O[C@@H]2O[C@H](C)C[C@H](N(C)C)[C@H]2O)[C@](C)(OC)C[C@@H](C)C(=O)[C@H](C)[C@H]2[C@H](SCCn3cnc4cncnc43)C(=O)O[C@@]21C [Example 20] | >32 µg/mL | >32 µg/mL | 1 µg/mL (≈ 1.05 µM) | 8 µg/mL (≈ 8.42 µM) | <=0.06 μg/ml | 1 µg/mL | 1 µg/mL | <=0.06 μg/ml | 0.5 µg/mL | 1 µg/mL | – | – | – | – | – | – | – | – | – | –
6 | CN(C)[C@@H]1C(O)=C(C(N)=O)C(=O)[C@@]2(O)C(O)=C3C(=O)c4c(O)cccc4[C@@](C)(O)[C@H]3C[C@@H]12 [Tetracycline, reference compound] | – | – | – | – | – | – | – | – | – | – | 32 µg/mL (≈ 72 µM) | ≤ 0.06 µg/mL | – | – | – | – | – | – | – | –

Second part, the molecule after the results:

Row | MIC [1] | MIC [2] | MIC [3] | MIC [4] | MIC [5] | MIC [6] | MIC [7] | MIC [8] | MIC [9] | MIC [10] | MIC [4, 11] | MIC [5, 11] | MIC ([1]; ATCC25922, read-out: MIC) | MIC ([2]; read-out: MIC) | MIC ([3]; ATCC29213, read-out: MIC) | MIC ([6]; read-out: MIC) | MIC ([7]; read-out: MIC) | MIC ([8]; read-out: MIC) | MIC ([9]; read-out: MIC) | MIC ([10]; read-out: MIC) | Structure (SMILES)
7 | >32 µg/mL | >32 µg/mL | 2 µg/mL (≈ 2.01 µM) | >32 µg/mL | 0.125 µg/mL (≈ 0.126 µM) | 16 µg/mL | >32 µg/mL | 0.125 µg/mL | >32 µg/mL | >32 µg/mL | – | – | – | – | – | – | – | – | – | – | CC[C@H]1OC(=O)[C@H](C)[C@@H](O[C@H]2C[C@@](C)(OC)[C@@H](O)[C@H](C)O2)[C@H](C)[C@@H](O[C@@H]2O[C@H](C)C[C@H](N(C)C)[C@H]2O)[C@](C)(OC)C[C@@H](C)C(=O)[C@H](C)[C@H]2[C@H](SCC(=O)c3ccc(N(CC)CC)cc3)C(=O)O[C@@]21C [Example 26]
8 | >32 µg/mL | >32 µg/mL | 1 µg/mL (≈ 1.02 µM) | >32 µg/mL | <=0.06 μg/ml | 8 µg/mL | 8 µg/mL | <=0.06 μg/ml | 4 µg/mL | 4 µg/mL | – | – | – | – | – | – | – | – | – | – | CC[C@H]1OC(=O)[C@H](C)[C@@H](O[C@H]2C[C@@](C)(OC)[C@@H](O)[C@H](C)O2)[C@H](C)[C@@H](O[C@@H]2O[C@H](C)C[C@H](N(C)C)[C@H]2O)[C@](C)(OC)C[C@@H](C)C(=O)[C@H](C)[C@H]2[C@H](SCC(=O)c3ccc(OC)cc3OC)C(=O)O[C@@]21C [Example 27]
9 | >32 µg/mL | >32 µg/mL | 1 µg/mL (≈ 1.05 µM) | 4 µg/mL (≈ 4.22 µM) | <=0.06 μg/ml | 2 µg/mL | 2 µg/mL | <=0.06 μg/ml | 0.5 µg/mL | 1 µg/mL | – | – | – | – | – | – | – | – | – | – | CC[C@H]1OC(=O)[C@H](C)[C@@H](O[C@H]2C[C@@](C)(OC)[C@@H](O)[C@H](C)O2)[C@H](C)[C@@H](O[C@@H]2O[C@H](C)C[C@H](N(C)C)[C@H]2O)[C@](C)(OC)C[C@@H](C)C(=O)[C@H](C)[C@H]2[C@H](SCCn3cnc4ccccc43)C(=O)O[C@@]21C [Example 19]
10 | >32 µg/mL | >32 µg/mL | 2 µg/mL (≈ 2.09 µM) | 4 µg/mL (≈ 4.18 µM) | <=0.06 μg/ml | 4 µg/mL | 4 µg/mL | <=0.06 μg/ml | 0.5 µg/mL | 2 µg/mL | – | – | – | – | – | – | – | – | – | – | CC[C@H]1OC(=O)[C@H](C)[C@@H](O[C@H]2C[C@@](C)(OC)[C@@H](O)[C@H](C)O2)[C@H](C)[C@@H](O[C@@H]2O[C@H](C)C[C@H](N(C)C)[C@H]2O)[C@](C)(OC)C[C@@H](C)C(=O)[C@H](C)[C@H]2[C@H](SCCn3cc(C)c(=O)[nH]c3=O)C(=O)O[C@@]21C [Example 21]
11 | >=32 μg/ml | >32 µg/mL | 0.5 µg/mL (≈ 0.525 µM) | >32 µg/mL | <=0.06 μg/ml | 2 µg/mL | 2 µg/mL | <=0.06 μg/ml | 1 µg/mL | 2 µg/mL | – | – | – | – | – | – | – | – | – | – | CC[C@H]1OC(=O)[C@H](C)[C@@H](O[C@H]2C[C@@](C)(OC)[C@@H](O)[C@H](C)O2)[C@H](C)[C@@H](O[C@@H]2O[C@H](C)C[C@H](N(C)C)[C@H]2O)[C@](C)(OC)C[C@@H](C)C(=O)[C@H](C)[C@H]2[C@H](SCC(=O)NCc3ccccn3)C(=O)O[C@@]21C [Example 6]
12 | >32 µg/mL | 32 µg/mL (≈ 33.2 µM) | 2 µg/mL (≈ 2.07 µM) | 32 µg/mL (≈ 33.2 µM) | <=0.06 μg/ml | 8 µg/mL | 8 µg/mL | <=0.06 μg/ml | 8 µg/mL | 8 µg/mL | – | – | – | – | – | – | – | – | – | – | CC[C@H]1OC(=O)[C@H](C)[C@@H](O[C@H]2C[C@@](C)(OC)[C@@H](O)[C@H](C)O2)[C@H](C)[C@@H](O[C@@H]2O[C@H](C)C[C@H](N(C)C)[C@H]2O)[C@](C)(OC)C[C@@H](C)C(=O)[C@H](C)[C@H]2[C@H](SCC(=O)Nc3ccc(C)c(C)c3)C(=O)O[C@@]21C [Example 22]
13 | >32 µg/mL | >32 µg/mL | 1 µg/mL (≈ 1.03 µM) | 16 µg/mL (≈ 16.4 µM) | <=0.06 μg/ml | 4 µg/mL | 4 µg/mL | <=0.06 μg/ml | 0.5 µg/mL | 1 µg/mL | – | – | – | – | – | – | – | – | – | – | CC[C@H]1OC(=O)[C@H](C)[C@@H](O[C@H]2C[C@@](C)(OC)[C@@H](O)[C@H](C)O2)[C@H](C)[C@@H](O[C@@H]2O[C@H](C)C[C@H](N(C)C)[C@H]2O)[C@](C)(OC)C[C@@H](C)C(=O)[C@H](C)[C@H]2[C@H](SCCn3ccc(-c4cccnc4)n3)C(=O)O[C@@]21C [Example 17]
